In patent US9980942B2, “Rejuvenation of precursor cells” (Children's Hospital Medical Center, priority 2012, dated 2018):
“Also recorded” adds a separate entry of the source.

Key:
Cdc42 = biological target: T1, Cdc42 (Mus musculus, UniProt P60766); assay: Cdc42-GTPase effector domain pull-down / Western blot; assay type: cell-based; settings: CASIN 5 μM, aged lineage depleted bone marrow cells
T1 construct: lineage depleted BM cells (10^6) were lysed in a Mg2+ lysis/wash buffer; endogenous in cells; host or cells: lineage-depleted bone marrow (Lin- BM) cells from aged C57BL/6 mice
Protocol: Relative levels of GTP-bound Cdc42 were determined by an effector pull-down assay. Briefly, lineage depleted BM cells (10^6) were lysed in a Mg2+ lysis/wash buffer (Upstate cell signaling solutions) containing 10% glycerol, 25 mM sodium fluoride, 1 mM sodium orthovanadate and a protease inhibitor cocktail (Roche Diagnostics). Samples were incubated with PAK-1 binding domain/agarose beads and bound (activated) as well as unbound (non-activated) Cdc42 fractions were probed by immunoblotting with an anti-Cdc42 antibody (Millipore, rabbit polyclonal). Activated protein was normalized to total protein and/or β-actin (Sigma) and the relative amount was quantified by densitometry.

aged LT-HSCs = assay: Immunofluorescence polarity scoring of Cdc42 and tubulin; assay type: cell-based, mouse
Protocol: Freshly sorted LT-HSCs were seeded on fibronectin-coated glass coverslips in HBSS+10% FBS. CASIN (referred to in (Peterson et al., 2006) as Pirl1-related compound 2) was obtained from Chembridge Corporation, and purified to greater than 99% by high-performance liquid chromatography. After 16 hours of incubation at 37° C., 5% CO2, 3% O2, cells were fixed with BD Cytofix Fixation Buffer (BD Biosciences).
After fixation cells were gently washed with PBS, permeabilized with 0.2% Tryton X-100 (Sigma) in PBS for 20 minutes and blocked with 10% Donkey Serum (Sigma) for 30 minutes. Primary and secondary antibodies incubations were performed for 1 hr at room temperature. […] The cells were coimmunostained with an anti-alpha tubulin antibody (Abcam, rat monoclonal ab6160) detected with an anti-rat AMCA-conjugated secondary antibody or an anti-rat DyLight 488-conjugated antibody (Jackson ImmunoResearch), an anti-Cdc42 antibody (Millipore, rabbit polyclonal) detected with an anti-rabbit DyLight 549-conjugated antibody (Jackson ImmunoResearch) and an anti-Pericentrin-2 antibody (Santa Cruz Biotechnology, goat polyclonal) detected with an anti-goat MCAconjugated antibody (Jackson ImmunoResearch). […] Images were analyzed with AxioVision 4.6 software. Alternatively, samples were analyzed with an LSM710 confocal microscope (Zeiss) equipped with a 63X objective. […]

HSC = assay: In vivo rejuvenation of HSC (Example 6); parameters: species or system mice
Protocol: To test the extent to which CASIN rejuvenates HSC in vivo, aged (20+ months old mice) are given CASIN i. v. or i.p. twice daily for 28 days and compared to young as well as aged solvent injected control groups. In 28 days most of the HSCs cycle at least once in vivo. Subsequently, PB is harvested every 14 days for a total of 2 months and differential blood counts (myeloid cells, lymphoid cells, red blood cells etc) are determined by hemavat counting and flow cytometry. At 3 months post CASIN treatment, when hematopoesis should be fully supported by stem cell activity of the CASIN exposed HSCs, animals are sacrificed and the number of early hematopoietic progenitor cells (Lineage^negc-Kit^+Sca-1^+ or LSK), long-term repopulating-HSC (LSKCD34^low/−Flk-2^−, LT-HSC), lymphoid-primed multi-potent progenitors (LMPPs, LSKCD34^+Flk-2^+11, 23, 24) are determined.
Separately, to investigate the effect of CASIN on stem cell fitness and lineage differentiation, standard competitive transplantation assays are performed using the syngeneic CD45.1/CD45.2 surface marker system to differentiate donor from recipient cells. […] Lineage chimerism (myeloid, B- and T-lymphoid) in peripheral blood (PB) is then determined up to 24-weeks post-transplant. […]

aged HSCs = assay: Whole genome expression profiling of HSCs; assay type: cell-based; settings: CASIN treated aged HSCs
Text: Aged HSCs have distinct whole genome expression profiles. To define the effect of Cdc42 inhibition by CASIN on molecular pathways regulating HSCs, cDNA was derived from linearly amplified RNA from CASIN-treated or untreated aged or young HSCs, using tested amplification, array hybridization and bioinformatic analysis services provided by the company Miltenyi. The goal of these experiments was to identify changes in whole genome expression patterns or in functionally defined groups of genes, rather than changes in individual genes. Differences in expression of functional gene groups was confirmed by real-time RT-PCR of selected genes using the standard ABI/Taqman probe system.

skin = assay: Topical rejuvenation of dermal tissue; assay type: in vivo; settings: aged mice, topical non-transdermal formulation
Protocol: To further assess the effects of in vivo administration of CASIN on aging parameters in the skin, aged mice are treated with CASIN as described in Example 5. However, instead of intraperitoneal injection, CASIN is administered topically in a formulation designed for non-transdermal use. The treated and untreated aged and young mice are then tested for skin thickness and wound healing.

[1] = Weight of young and aged mice after CASIN; assay type: in vivo, C57BL/6 mice; settings: aged mice, 2.4 mg/kg twice a day for 5 days intraperitoneal, after 1 week
Protocol: CASIN was given at a dose of 2.4 mg/kg twice a day 6 hours apart for 5 days via intraperitoneal injection in both young (10-12 wk old) and aged (22-24 month old) C57BL/6 mice. Aged C57BL/6 mice present with elevated Cdc42 activity in multiple tissues. Weight of the mice was determined in the young and aged control group (no CASIN, just vehicle (PBS/15% Ethanol)) at initiation of the experiment and after 1 week, as well as in the CASIN treated groups (young and aged) at initiation and 1 week after.

T1 sequence (P60766 whole entry, the tested form may be a part): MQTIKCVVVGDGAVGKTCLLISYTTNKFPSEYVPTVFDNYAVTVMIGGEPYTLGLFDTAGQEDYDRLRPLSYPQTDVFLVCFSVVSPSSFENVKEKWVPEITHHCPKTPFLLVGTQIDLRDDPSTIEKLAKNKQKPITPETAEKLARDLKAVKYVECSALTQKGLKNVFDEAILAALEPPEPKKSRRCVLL

OCCNC1CCCc2c1[nH]c1ccc(-c3ccccc3)cc21 (stereo not drawn) [CASIN]
level of active Cdc42 (Cdc42-GTP) (Cdc42): reduced the elevated level of active Cdc42 observed in aged primitive hematopoietic cells to the level observed in young cells
time the increase in percentage of polar cells remained stable after CASIN withdrawal (aged LT-HSCs; aged LT-HSCs in vitro): ≥ 6 h
percentage of polarized cells (Cdc42 and tubulin) (aged LT-HSCs; aged LT-HSCs, 2.5 and 5 μM CASIN): dose-dependent increase
preferential differentiation towards the myeloid lineage (HSC; CASIN-treated aged HSCs): ameliorated
chimerism in competitive transplant assays (HSC; HSCs from CASIN-treated aged animals): greater than the overall chimerism supported by aged HSCs and similar to that observed for young HSCs
whole genome expression pattern (aged HSCs): largely resemble young HSCs
skin thickness (skin): approximately equal to that of young mice
wound healing (skin): respond similarly or nearly identical to the skin of young mice
weight [1]: significant reduction; also recorded: weight loss
